These are literature values, as cited in patent US20220372506A1, “CYP81E GENES […] TOLERANCE” (Colorado State University Research Foundation, priority 2020, published 2022).

Entries after “also recorded” stand apart in the source; their conditions may differ.

Data set [1] concerns A. tuberculatus CHR population. To be noted: CHR population compared to WUS; for level of resistance (dose response): Evans et al. 2019.
The subject of data set [2] is A. tuberculatus NEB population.
Data set [3] deals with A. tuberculatus NEB population. The conditions noted are these: malathion pre-treatment before 2,4-D, Figueiredo et al. 2018.

In the case of `O=C(O)COc1ccc(Cl)cc1Cl` [2,4-D, 2,4-dichlorophenoxyacetic acid], the “level of resistance (dose response)” value in data set [1] was 9 fold. The “level of 2,4-D resistance” value in data set [2] (NEB population compared to the Nebraska 2,4-D sensitive population, Bernards et al. 2012) is 10 fold.
On to `CS(=O)(=O)c1ccc(C(=O)C2C(=O)CCCC2=O)c([N+](=O)[O-])c1` [mesotrione], for which the “level of resistance (dose response)” value in data set [1] is about 15 fold.
For the compound `CCOC(=O)CC(SP(=S)(OC)OC)C(=O)OCC` (stereo not drawn) [malathion], the “effect of pre-treatment on 2,4-D resistance phenotype” value in data set [3] is on record as “reverted to sensitivity; also recorded: reversed the resistance phenotype”.
`CS(=O)(=O)c1ccc(C(=O)C2C(=O)CCCC2=O)c(Cl)c1COCC(F)(F)F` [tembotrione]: the resistance to tembotrione in data set [1] (Murphy and Tranel, 2019) is 43 fold; in data set [2] (NEB population compared to WUS, Murphy and Tranel, 2019), 15 fold.
